Experimental data from patent US20230066156A1, “6-SUBSTITUTED, 22-CYANO HYODEOXYCHOLANIC ANALOGUES AND USES THEREOF” (PRECISION BIO-THERAPEUTICS S.R.L., priority 2019, published 2023).

Experiments:
human GPBAR1 = biological target: T1, human GPBAR1 (Homo sapiens, UniProt Q8TDU6); experiment: GPBAR1 mediated transactivation, CRE-luciferase reporter in transfected HEK-293T cells; assay type: cell-based; details: for EC50: HEK-293T CRE-luciferase transactivation; for GPBAR1 (% of activity in comparison to 10 μM TLCA): compound at 10 microM, HEK-293T, TLCA = 100%, triplicate; for GPBAR1/FXR selectivity: ratio between % of activity toward GPBAR1 and % of activity toward FXR
T1 construct: expressed in transfected cells; host or cells: HEK-293T
T1 sequence (Q8TDU6 1-330): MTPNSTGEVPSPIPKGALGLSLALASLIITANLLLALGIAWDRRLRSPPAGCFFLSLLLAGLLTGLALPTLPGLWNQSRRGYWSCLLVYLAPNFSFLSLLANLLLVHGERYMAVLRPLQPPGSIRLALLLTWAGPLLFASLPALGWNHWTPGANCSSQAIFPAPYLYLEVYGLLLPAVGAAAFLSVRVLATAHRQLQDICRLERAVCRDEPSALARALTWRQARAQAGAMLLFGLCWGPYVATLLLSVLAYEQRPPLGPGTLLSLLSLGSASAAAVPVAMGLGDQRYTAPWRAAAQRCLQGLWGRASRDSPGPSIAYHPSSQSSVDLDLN
Description: (§1) Selected compounds were tested in vitro on FXR and TGR5/GPBAR1 receptors (Table 1) using a whole cell model transfected with a reporter genes. The activity was evaluated in comparison with chenodeoxycholic acid (CDCA) and TLCA.
(§2) CDCA is a primary bile acid that functions as an endogenous ligand for FXR, while TLCA is a physiological ligand for TGR5/GPBAR1. In this assay, HepG2 cells (a liver-derived cell line) were cultured at 37° C. in minimum essential medium with Earl's salts containing 10% fetal bovine serum (FBS), 1% L-glutamine, and 1% penicillin/streptomycin. HEK-293T cells were cultured at 37° C. in D-MEM containing 10% fetal bovine serum (FBS), 1% L-glutamine, and 1% penicillin/streptomycin. The transfection experiments were performed using Fugene HD according to manufactured specifications. Cells were plated in a 24-well plate at 5×10^4 cells/well. For FXR mediated transactivation, HepG2 cells were transfected with 100 ng of pSG5-FXR, 100 ng of pSG5-RXR, 100 ng of pGL4.70 a vector encoding the human Renilla gene and 250 ng of the reporter vector p(hsp27)-TK-LUC containing the FXR response element IR1 cloned from the promoter of heat shock protein 27 (hsp27).
For GPBAR1 mediated transactivation, HEK-293T cells were transfected with 200 ng of pGL4.29, a reporter vector containing a cAMP response element (CRE) that drives the transcription of the luciferase reporter gene luc2P, with 100 ng of pCMVSPORT6-human GPBAR1, and with 100 ng of pGL4.70 a vector encoding the human Renilla gene. In control experiments HEK-293T cells were transfected only with vectors pGL4.29 and pGL4.70 to exclude any possibility that compounds could activate the CRE in a GPBAR1 independent manner. At 24 h post-transfection, cells were stimulated for 18 h with 10 μM TLCA as a control agent or putative GPBAR1 agonists as the same concentration. After treatments, cells were lysed in 100 μL of lysis buffer (25 mM Tris-phosphate, pH 7.8; 2 mM DTT; 10% glycerol; 1% Triton X-100), and 20 μL of cellular lysate was assayed for luciferase activity using the luciferase assay system. Luminescence was measured using Glomax 20/20 luminometer. Luciferase activities were normalized against Renilla activities. Antagonism against FXR of GPBAR1/TGR5 was measured as percent of activity in transactivation assay suing activity of TLCA as example of agonism.
(§3) The data on the activity of certain compounds of the invention on TGR5/GPBAR1 are described in the following table 1. In this table, activities for compounds of the invention on GPBAR1 was compared to those of the reference compound TLCA. For % of activity, each compound was tested at the concentration of 10 microM and transactivation activity of TLCA on CRE (i.e. TGR5/GPBAR1) was considered equal to 100%. For selectivity toward FXR, activity was assessed in HepG2 cells transfected with an FXR responsive element (IR1) cloned upstream to the luciferase gene. For calculation of efficacy data, maximal transactivation of IR1 caused by each compound (10 μM) was compared to maximal transactivation caused by CDCA (10 μM). GPBAR1/FXR selectivity calculated as ratio between % of activity toward GPBAR1 and % of activity toward FXR. Each experiment was conducted in triplicate.

FXR = biological target: T2, FXR (Homo sapiens, UniProt Q96RI1); experiment: FXR mediated transactivation, IR1 (hsp27)-luciferase reporter in transfected HepG2 cells; assay type: cell-based; details: compound at 10 μM, HepG2, vs maximal transactivation by CDCA 10 μM, triplicate
T2 construct: expressed in transfected cells; host or cells: HepG2
T2 sequence (Q96RI1 1-486): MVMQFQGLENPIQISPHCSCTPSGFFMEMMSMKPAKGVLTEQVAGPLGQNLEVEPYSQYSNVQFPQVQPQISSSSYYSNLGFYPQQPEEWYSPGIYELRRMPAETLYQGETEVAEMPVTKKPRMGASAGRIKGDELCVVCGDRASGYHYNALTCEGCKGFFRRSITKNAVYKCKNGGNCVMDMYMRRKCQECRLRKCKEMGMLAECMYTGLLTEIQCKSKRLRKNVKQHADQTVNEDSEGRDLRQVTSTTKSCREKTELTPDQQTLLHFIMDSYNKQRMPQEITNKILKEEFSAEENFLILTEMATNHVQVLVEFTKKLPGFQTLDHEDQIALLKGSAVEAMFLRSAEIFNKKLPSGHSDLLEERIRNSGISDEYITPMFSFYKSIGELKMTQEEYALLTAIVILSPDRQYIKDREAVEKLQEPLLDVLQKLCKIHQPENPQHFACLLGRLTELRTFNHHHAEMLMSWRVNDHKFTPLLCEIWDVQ
T2 sequence (P19793 1-462 partner): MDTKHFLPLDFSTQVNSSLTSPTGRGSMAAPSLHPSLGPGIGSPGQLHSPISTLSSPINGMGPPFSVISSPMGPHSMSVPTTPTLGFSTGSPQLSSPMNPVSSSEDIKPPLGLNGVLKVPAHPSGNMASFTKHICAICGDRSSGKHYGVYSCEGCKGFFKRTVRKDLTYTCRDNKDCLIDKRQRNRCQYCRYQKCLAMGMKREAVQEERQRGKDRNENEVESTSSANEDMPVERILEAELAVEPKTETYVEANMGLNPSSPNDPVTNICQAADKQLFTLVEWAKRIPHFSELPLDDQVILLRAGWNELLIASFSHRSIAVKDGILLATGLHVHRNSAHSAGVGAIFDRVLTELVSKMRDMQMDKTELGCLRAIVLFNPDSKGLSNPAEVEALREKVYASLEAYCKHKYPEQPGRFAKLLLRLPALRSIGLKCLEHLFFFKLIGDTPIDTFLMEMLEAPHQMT
Description: as §1, §2, §3

| SMILES | EC50 (human GPBAR1) [nM] | GPBAR1 (% of activity in comparison to 10 μM TLCA) (human GPBAR1) [%] | GPBAR1/FXR selectivity (human GPBAR1) | FXR (% of activity in comparison to 10 μM CDCA) (FXR) [%] |
| --- | --- | --- | --- | --- |
| CC[C@@]1(O)C[C@H]2[C@@H]3CC[C@H]([C@H](C)CC#N)[C@@]3(C)CC[C@@H]2[C@@]2(C)CC[C@@H](O)C[C@@H]12 [PBT110A, 3α,6β-dihydroxy-6α-ethyl-24-nor-5β-cholan-23-nitrile] | 660 | 65.9 ± 1.69 | 9.9 | 6.6 ± 0.065 |
| C=CCCC[C@]1(O)C[C@H]2[C@@H]3CC[C@H]([C@H](C)CC#N)[C@@]3(C)CC[C@@H]2[C@@]2(C)CC[C@@H](O)C[C@@H]12 [PBT114, 3α, 6α-dihydroxy-6β-(4-Pentenyl)-24-Nor-5β-Cholane-23-Nitrile] | 780 | 90.1 ± 1.35 | 56.31 | 1.6 ± 0.05 |
| C[C@H](CC#N)[C@H]1CC[C@H]2[C@@H]3C[C@@](C)(O)[C@@H]4C[C@H](O)CC[C@]4(C)[C@H]3CC[C@]12C [PBT109A, 3α, 6β-dihydroxy-6α-methyl-24-nor-5β-cholan-23-nitrile] | 570 | 83.4 ± 2.4 | 15.1 | 5.5 ± 0.7 |
| C[C@H](CC#N)[C@H]1CC[C@H]2[C@@H]3C[C@](C)(O)[C@@H]4C[C@H](O)CC[C@]4(C)[C@H]3CC[C@]12C [PBT109B, 3α,6α-dihydroxy-6β-methyl-24-nor-5β-cholan-23-nitrile] | 6900 | 95.4 ± 0.24 | 14.9 | 6.4 ± 0.23 |
| C[C@H](CC#N)[C@H]1CC[C@H]2[C@@H]3C[C@](O)(Cc4ccccc4)[C@@H]4C[C@H](O)CC[C@]4(C)[C@H]3CC[C@]12C [PBT117, 3α,6β-dihydroxy-6α-benzyl-24-nor-5β-cholane-23-nitrile] | 9330 | 8.3 ± 0.015 | 1.88 | 4.4 ± 0.49 |
| C[C@H](CC#N)[C@H]1CC[C@H]2[C@@H]3C[C@@](O)(c4ccccc4)[C@@H]4C[C@H](O)CC[C@]4(C)[C@H]3CC[C@]12C [PBT115, 3α, 6α-dihydroxy-6β-phenyl-24-nor-5β-cholane-23-nitrile] | 4580 | 38.8 ± 1.79 | 2.13 | 18.2 ± 1.08 |
| CCC[C@]1(O)C[C@H]2[C@@H]3CC[C@H]([C@H](C)CC#N)[C@@]3(C)CC[C@@H]2[C@@]2(C)CC[C@@H](O)C[C@@H]12 [PBT111, 3α,6α-dihydroxy-6β-propyl-24-nor-5β-cholan-23-nitrile] | 1200 | 67.1 ± 2.1 | 21.6 | 3.1 ± 0.29 |
| CC(C)[C@]1(O)C[C@@H]2[C@H](CC[C@]3(C)[C@@H]([C@H](C)CC#N)CC[C@@H]23)[C@@]2(C)CC[C@@H](O)C[C@H]21 [PBT112, 3α, 6α-dihydroxy-6β-isopropyl-24-nor-5β-cholane-23-nitrile] | 2780 | 22.2 ± 0.13 | 5.16 | 4.3 ± 0.31 |
| C=C[C@]1(O)C[C@@H]2[C@H](CC[C@]3(C)[C@@H]([C@H](C)CC#N)CC[C@@H]23)[C@@]2(C)CC[C@@H](O)C[C@H]21 [PBT113, 3α, 6α-dihydroxy-6β-vinyl-24-nor-5β-cholane-23-nitrile] | 2260 | 62.5 ± 2.18 | 28.4 | 2.2 ± 0.5 |
